Source: PMC11220654, “A Frog Skin‐Derived Peptide Targeting SCD1 Exerts Radioprotective Effects Against Skin Injury by Inhibiting STING‐Mediated Inflammation” (Advanced Science, 2024)

Legend:
Assay type in all cases: cell-based, human
irradiated HaCaT cells = assay: Autophagy, mRFP-GFP-LC3 infection study and LC3 II Western blotting; settings: 15 µM RIFSP-2, Western blotting
Excerpt: Figure 4 MUFAs facilitate ionizing radiation‐induced STING activation, which is disrupted by RIFSP‐2. A) Bioinformatic analysis of the connection between specific binding proteins of RIFSP‐2 (green nodes) and STING (red nodes) in irradiated skin cells. B) Detection of the phosphorylation of STING in RIFSP‐2‐treated and irradiated HaCaT cells through IP analysis. C) Detection of the phosphorylation of TBK1 in RIFSP‐2‐treated primary skin cells from STING wild type mice and depletion ones through Western blotting analysis. D) Investigation of the interaction between STING and RIFSP‐2 in irradiated HaCaT cells based on the established Avidin‐Biotin‐RIFSP‐2 system. E) Volcano plots of differences between lipid class in irradiated HaCaT cells pretreated with RIFSP‐2 or not. F) Influence of LPC (18:1) and RIFSP‐2 in STING downstream signals in irradiated HaCaT cells through Western blotting analysis. G) Influence of LPC (18:1) and RIFSP‐2 in STING downstream inflammatory factors in irradiated HaCaT and RAW 264.7 cells through ELISA assays. […] J) Alteration of biomarkers for autophagy and pyroptosis in irradiated HaCaT cells pretreated with 15 µM RIFSP‐2 in combination with H151 or MF438, detected by Western blotting. *P < 0.05 and **P < 0.01, compared with the control group. […]

irradiated skin cells = assay: LDH release and JC-1 staining with H151; settings: RIFSP-2 15 µM
Excerpt: Next, we investigated whether suppression of the SCD1‐MUFA‐STING axis by RIFSP‐2 accounts for its protective effect against radiation injury in skin cells. […] Besides, Sting knockout dramatically limited the clonogenic formation ability after administration of RIFSP‐2 (Figure S4F, Supporting Information).
Figure 5 RIFSP‐2 mitigates radiation injury in a STING‐related manner. A) Cell proliferation and death assays for influence of RIFSP‐2 in primary skin cells from STING‐depleted and wild‐type mice detected by CCK‐8 and LDH analysis. B) LDH analysis of irradiated and nonirradiated skin cells pretreated with 15 µM RIFSP‐2 in combination with H151 or not. […]
A clonogenic survival assay of skin cells was performed as previously reported (1). […] Colonies consisting of 50 or more cells were counted as a clone. The relative clonogenic survival fraction was calculated using ImageJ software as previously reported […]
Cells were seeded in a 96-well plate at a density of 1 X 10^4 cells per well. […] In vitro viability was measured using the Cell Counting Kit-8 (CCK-8) (Dojindo Laboratories, Kumamoto, Japan).
Optical density was measured at 450 nm using a microplate reader (Biotek, Winooski, VT).
Cell death was measured by the level of LDH released into the supernatant using an LDH cytotoxicity assay kit (Beyotime, Nantong, China) according to the manufacturer’s instructions. […]

[1] = system: STING phosphorylation in irradiated skin cells; assay: STING phosphorylation by IP analysis; settings: irradiated skin cells (HaCaT)
Excerpt: Considering the localization of RIFSP‐2 in ER, we then investigated the potential connection between RIFSP‐2 and STING. First, we adopted a proteomic analysis to investigated the interactomes of STING in HaCaT cells, and identified 136 specific proteins in response to radiation. Then, strong connections between specific interactomes for RIFSP‐2 and STING in irradiated skin cells were established in protein interactive analysis, with confidence score > 0.7 (high confidence) (Figure 4A).
Figure 4 MUFAs facilitate ionizing radiation‐induced STING activation, which is disrupted by RIFSP‐2. A) Bioinformatic analysis of the connection between specific binding proteins of RIFSP‐2 (green nodes) and STING (red nodes) in irradiated skin cells. B) Detection of the phosphorylation of STING in RIFSP‐2‐treated and irradiated HaCaT cells through IP analysis. C) Detection of the phosphorylation of TBK1 in RIFSP‐2‐treated primary skin cells from STING wild type mice and depletion ones through Western blotting analysis. […] J) Alteration of biomarkers for autophagy and pyroptosis in irradiated HaCaT cells pretreated with 15 µM RIFSP‐2 in combination with H151 or MF438, detected by Western blotting. *P < 0.05 and **P < 0.01, compared with the control group. […]
Cells were subjected to indicated treatments. […] The protein level was detected by the indicated antibodies with Western blotting analysis.

skin cells [2] = assay: BODIPY 493/503 probe staining, neutral lipid droplets; settings: pretreatment
Method: (§1) Figure 3 RIFSP‐2 restrained SCD1‐mediated biogenesis of MUFA in irradiated skin cells. A) Schematic showing the proteomic analysis performed to investigate the interactome of RIFSP‐2 in irradiated skin cells, as determined by liquid chromatography with tandem mass spectrometry (LC–MS/MS), based on the Avidin‐Biotin‐RIFSP‐2 system. B) Bradford staining of proteins pulled down with Biotin‐RIFSP‐2 and Venn diagram showing common and specific interactomes detected by LC–MS/MS and representative proteins. C) The enriched functions of RIFSP‐2 interactomes in irradiated skin cells based on Gene Ontology (GO) molecular function analysis. D) Colocalization analysis showing FITC‐RIFSP‐2 (green) and ER‐Tracker (red) in irradiated HaCaT cells. E) Changes in neutral lipid droplet formation in irradiated skin cells treated with RIFSP‐2 detected via BODIPY 493/503 probe staining. F) Verification of the interaction between RIFSP‐2 and SCD1 through immunoprecipitation (IP) analysis. G) Molecular simulation of the interaction between RIFSP‐2 and SCD1. […] M–P) Influence of the SCD1 inhibitor MF438 on the neutral lipid droplet formation, ferroptosis, and apoptosis of irradiated skin cells pretreated with RIFSP‐2, as detected by BODIPY 493/503 probe staining, BODIPY 581/591 C11 probe staining and AV/PI staining. *P < 0.05 and **P < 0.01, compared with the control group. […]

skin cells [3] = assay: BODIPY 581/591 C11 probe (ferroptosis) and AV/PI staining
Method: as §1, with “[…],” for “ferroptosis, and apoptosis of irradiated skin cells pretreated with RIFSP‐2,”

Compound	influence of pretreatment on the increase in LC3 II levels induced by RIFSP-2 (irradiated HaCaT cells)	LDH release (irradiated skin cells)	STING phosphorylation [1]	formation of neutral lipid droplets (skin cells [2])	influence of pretreatment on the RIFSP-2 effects on ferroptosis and AV staining (skin cells [3])
CCc1ccc(NC(=O)Nc2c[nH]c3ccccc23)cc1 [H151]	not	attenuated LDH release	–	–	–
Cc1nnc(-c2ccc(N3CCC(Oc4ccccc4C(F)(F)F)CC3)nn2)s1 [MF‐438]	dramatically limited the increase in LC3 II levels	–	significant reduction in STING phosphorylation	effectively promoted the formation of neutral lipid droplets	diminished these effects
